Data on 14 compounds can be found in US20140155384A1, “COMPOUNDS AND METHODS OF TREATING DIABETES” (Medivation Technologies, Inc., priority 2011, published 2014).

Molecules are shown by their SMILES.

Test [1] has as its target T1, human recombinant adrenergic α2A receptor (Homo sapiens, UniProt P08913).
T1 construct: expressed in transfected cells; host or cells: insect Sf9 cells
T1 sequence (P08913 1-465): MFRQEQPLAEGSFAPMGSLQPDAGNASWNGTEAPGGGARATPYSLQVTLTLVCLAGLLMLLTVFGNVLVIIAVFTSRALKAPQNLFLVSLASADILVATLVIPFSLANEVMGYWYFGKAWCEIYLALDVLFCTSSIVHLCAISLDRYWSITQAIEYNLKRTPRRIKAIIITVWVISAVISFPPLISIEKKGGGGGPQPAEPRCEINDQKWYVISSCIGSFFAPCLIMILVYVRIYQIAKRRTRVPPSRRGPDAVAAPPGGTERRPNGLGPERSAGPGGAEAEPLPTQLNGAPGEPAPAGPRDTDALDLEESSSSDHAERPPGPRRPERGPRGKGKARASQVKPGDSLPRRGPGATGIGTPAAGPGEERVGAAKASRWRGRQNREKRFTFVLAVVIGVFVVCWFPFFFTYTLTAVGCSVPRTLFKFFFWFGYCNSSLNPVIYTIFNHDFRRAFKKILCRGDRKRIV
Kind of test: Radioligand binding, adrenergic α2A receptor ([3H]MK-912). Particulars: 0.1 μM compound; Sf9 cells; 1 nM [3H]MK-912; read-out: Percentage inhibition of ligand binding, Adrenergic α2A. In a few lines: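 Percent inhibition of specific [3H]MK-912 (1 nM) binding measured by filtration counting, compounds tested at ≤1 μM in 1% DMSO. Receptor: human α2A from Sf9 cells; incubation 60 min, 25 °C, pH 7.4; 10 μM WB-4101 defined nonspecific binding.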

The target of test [2] is T2, human recombinant adrenergic α2B receptor (Homo sapiens, UniProt P18089).
T2 construct: expressed in transfected cells; host or cells: CHO-K1
T2 sequence (P18089 1-450): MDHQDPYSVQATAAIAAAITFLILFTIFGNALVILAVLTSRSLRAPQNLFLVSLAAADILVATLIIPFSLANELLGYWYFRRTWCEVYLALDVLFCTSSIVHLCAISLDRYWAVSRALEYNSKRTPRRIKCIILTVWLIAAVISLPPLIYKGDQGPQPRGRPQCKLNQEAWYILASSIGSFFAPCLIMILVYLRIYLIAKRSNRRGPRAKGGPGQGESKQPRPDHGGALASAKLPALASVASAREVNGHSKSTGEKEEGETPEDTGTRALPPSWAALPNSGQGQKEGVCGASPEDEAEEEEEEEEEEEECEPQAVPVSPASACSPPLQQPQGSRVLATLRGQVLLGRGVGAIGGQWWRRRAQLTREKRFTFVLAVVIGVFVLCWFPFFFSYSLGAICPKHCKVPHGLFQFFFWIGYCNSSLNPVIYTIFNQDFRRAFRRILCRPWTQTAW
The experiment in a line: Radioligand binding, adrenergic α2B receptor ([3H]Rauwolscine). The following applies: 0.1 μM compound, CHO-K1 cells, read-out: Percentage inhibition of ligand binding, Adrenergic α2B. The method in brief: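 Percent inhibition of specific [3H]Rauwolscine (2.5 nM) binding, compounds at ≤1 μM, 1% DMSO vehicle, 10 μM prazosin defining nonspecific. Receptor: human α2B expressed in CHO-K1 cells, 60 min incubation at 25 °C in Tris-HCl pH 7.4 buffer (MgCl2, EDTA, BSA); filtered, washed, counted.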

Test [3] has as its target T3, human recombinant adrenergic α1D receptor (Homo sapiens, UniProt P25100).
T3 construct: expressed in transfected cells; host or cells: HEK-293
T3 sequence (P25100 1-572): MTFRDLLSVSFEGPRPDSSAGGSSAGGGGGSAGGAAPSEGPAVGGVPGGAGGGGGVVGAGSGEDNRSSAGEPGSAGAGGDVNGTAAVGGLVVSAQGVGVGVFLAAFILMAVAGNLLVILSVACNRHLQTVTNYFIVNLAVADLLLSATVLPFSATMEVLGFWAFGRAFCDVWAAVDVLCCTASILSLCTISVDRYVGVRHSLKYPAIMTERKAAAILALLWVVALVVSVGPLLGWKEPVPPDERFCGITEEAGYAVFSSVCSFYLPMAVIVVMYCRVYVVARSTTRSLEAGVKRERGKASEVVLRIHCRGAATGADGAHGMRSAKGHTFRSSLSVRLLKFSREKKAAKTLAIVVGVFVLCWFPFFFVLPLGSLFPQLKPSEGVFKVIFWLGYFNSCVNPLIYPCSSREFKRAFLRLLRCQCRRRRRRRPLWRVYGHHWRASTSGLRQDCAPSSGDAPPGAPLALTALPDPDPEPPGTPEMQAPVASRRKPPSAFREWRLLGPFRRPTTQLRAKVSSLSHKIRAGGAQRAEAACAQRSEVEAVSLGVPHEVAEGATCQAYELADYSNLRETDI
Kind of test: Radioligand binding, adrenergic α1D receptor ([3H]Prazosin). The following applies: 0.1 μM compound; HEK-293 cells; 0.6 nM [3H]Prazosin; read-out: Percentage inhibition of ligand binding, Adrenergic α1D. The procedure:
Compounds were incubated with 0.6 nM [3H]Prazosin for 60 min at 25° C. Non-specific binding was estimated in the presence of 10 μM phentolamine. Receptor proteins were filtered and washed, the filters were then counted to determine [3H]Prazosin specifically bound. Compounds were screened at 1 μM or lower, using 1% DMSO as vehicle. Biochemical assay results are presented as the percent inhibition of specific binding in Table 2.

Test [4] concerns the target T4, rat adrenergic α1B receptor (Rattus norvegicus, UniProt P15823).
T4 construct: rat adrenergic α1B receptor obtained from Wistar Rat liver; from tissue; host or cells: Wistar rat liver
T4 sequence (P15823 1-515): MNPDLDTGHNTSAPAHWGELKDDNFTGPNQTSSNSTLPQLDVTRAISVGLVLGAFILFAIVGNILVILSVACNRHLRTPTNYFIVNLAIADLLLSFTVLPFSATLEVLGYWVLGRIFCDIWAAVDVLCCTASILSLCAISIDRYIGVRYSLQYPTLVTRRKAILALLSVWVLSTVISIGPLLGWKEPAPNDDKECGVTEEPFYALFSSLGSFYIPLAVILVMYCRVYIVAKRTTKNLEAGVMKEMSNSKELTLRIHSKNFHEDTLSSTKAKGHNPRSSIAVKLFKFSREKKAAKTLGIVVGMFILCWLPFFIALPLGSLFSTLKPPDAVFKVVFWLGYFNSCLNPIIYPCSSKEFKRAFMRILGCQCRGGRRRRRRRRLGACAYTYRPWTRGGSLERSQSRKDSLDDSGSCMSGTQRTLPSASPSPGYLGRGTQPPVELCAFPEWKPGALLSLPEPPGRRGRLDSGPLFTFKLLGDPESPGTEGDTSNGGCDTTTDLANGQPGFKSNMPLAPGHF
Kind of test: Radioligand binding, adrenergic α1B receptor ([3H]Prazosin). Particulars: 0.1 μM compound, Wistar rat liver, read-out: Percentage inhibition of ligand binding, Adrenergic α1B. The method in brief:
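Wistar rat liver α1B receptor preparation incubated with 0.25 nM [3H]prazosin and compound for 60 min at 25° C in 50 mM Tris-HCl pH 7.4, 0.5 mM EDTA; nonspecific binding defined with 10 μM phentolamine.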

What is called inhibition is the relative decrease from the control value, in per cent. Regarding `Cc1ccc2c(c1)c1c(n2-c2ccccc2-c2ccc(F)cc2)CCN(C)C1` [Compound 10, 5-(4′-fluoro-biphenyl-2-yl)-2,8-dimethyl-2,3,4,5-tetrahydro-1H-pyrido[4,3-b]indole], the inhibition at 0.1 µM came out at 88% in test [1], 85% in test [2], 63% in test [3] and 61% in test [4].

In the case of `Cc1ccc2c(c1)c1c(n2-c2ccccc2-c2ccc(O)nc2)CCN(C)C1` [Compound No. 80, 5-(2-(2,8-dimethyl-3,4-dihydro-1H-pyrido[4,3-b]indol-5(2H)-yl)phenyl)pyridin-2-ol], the inhibition at 0.1 µM in test [1] was determined as 12%; in test [2], 27%; in test [3], 23%; in test [4], 9%.

As for `Cc1cc(C)c2c(c1)c1c(n2-c2cccc(-c3ccncc3)c2)CCN(C)C1` [Compound 57, 2,6,8-trimethyl-5-(3-(pyridin-4-yl)phenyl)-2,3,4,5-tetrahydro-1H-pyrido[4,3-b]indole], the inhibition at 0.1 µM in test [1] was 7%; in test [2], 11%; in test [3], -1%; in test [4] it was 6%.

On to `Cc1ccc2c(c1)c1c(n2-c2ccccc2-c2ccncc2)CCN(C)C1` [Compound 5, 2,8-dimethyl-5-(2-pyridin-4-yl-phenyl)-2,3,4,5-tetrahydro-1H-pyrido[4,3-b]indole], for which the inhibition at 0.1 µM in test [1] amounted to 26%; in test [2], 78%; in test [3] it was 45%; in test [4], 52%.

As to `Cc1ccc2c(c1)c1c(n2-c2ccc(-c3ccc(F)cc3)cn2)CCN(C)C1` [Compound No. 140, 5-(5-(4-fluorophenyl)pyridin-2-yl)-2,8-dimethyl-2,3,4,5-tetrahydro-1H-pyrido[4,3-b]indole], the inhibition at 0.1 µM in test [1] was 70%; in test [2], 96%; in test [3], 56%; in test [4], 69%.

As for `Cc1ccc2c(c1)c1c(n2-c2ccc3nc(C)ccc3c2)CCN(C)C1` [Compound No. 157, 2,8-dimethyl-5-(2-methyl-quinolin-6-yl)-2,3,4,5-tetrahydro-1H-pyrido[4,3-b]indole], the inhibition at 0.1 µM in test [1] was 8%; in test [2], 60%; in test [3] it was 13%; in test [4], 22%.

Consider `Cc1ccc2c(c1)c1c(n2-c2cccc(-c3ccc(F)nc3)c2)CCN(C)C1` [Compound 44, 5-(3-(6-fluoropyridin-3-yl)phenyl)-2,8-dimethyl-2,3,4,5-tetrahydro-1H-pyrido[4,3-b]indole], for which the inhibition at 0.1 µM in test [1] was found to be 29%; in test [2], 12%; in test [3], 2%; in test [4] it was 0%.

For the compound `Cc1ccc2c(c1)c1c(n2-c2ccc3c(c2)CCN(C=O)C3)CCN(C)C1` [Compound No. 77, 6-(2,8-dimethyl-1,2,3,4-tetrahydro-pyrido[4,3-b]indol-5-yl)-3,4-dihydro-1H-isoquinoline-2-carbaldehyde], the inhibition at 0.1 µM in test [1] was 15%; in test [2], 45%; in test [3], 6%; in test [4] it was 15%.

`Cc1ccc2c(c1)c1c(n2-c2ccc(-c3ccc(C)nc3)cn2)CCN(C)C1` [Compound No. 156, 2,8-dimethyl-5-(6′-methyl-3,3′-bipyridin-6-yl)-2,3,4,5-tetrahydro-1H-pyrido[4,3-b]indole]: the inhibition at 0.1 µM turned out to be 40% in test [1], 78% in test [2], 69% in test [3] and 78% in test [4].

On to `Cc1ccc2c(c1)c1c(n2-c2ccccc2-c2sccc2C)CCN(C)C1` [Compound No. 102, 2,8-dimethyl-5-(2-(3-methylthiophen-2-yl)phenyl)-2,3,4,5-tetrahydro-1H-pyrido[4,3-b]indole], for which the inhibition at 0.1 µM in test [1] is 85%; in test [2], 90%; in test [3], 50%; in test [4], 57%.

In the case of `Cc1ccc2c(c1)c1c(n2-c2cscc2-c2sccc2C)CCN(C)C1` [Compound 39], the inhibition at 0.1 µM amounted to 98% in test [1], 70% in test [2], 62% in test [3] and 67% in test [4].

As to `Cc1ccc2c(c1)c1c(n2-c2cscc2-c2cccc3[nH]ncc23)CCN(C)C1` [Compound 41], the inhibition at 0.1 µM is 87% in test [1], 70% in test [2], 76% in test [3] and 77% in test [4].

Regarding `Cc1ccc2c(c1)c1c(n2-c2cccc(-c3ccc(F)cc3)c2)CCN(C)C1` [Compound No. 61, 5-(4′-fluorophenyl-3-yl)-2,8-dimethyl-2,3,4,5-tetrahydro-1H-pyrido[4,3-b]indole], the inhibition at 0.1 µM in test [1] came out at 23%; in test [2] it was 7%; in test [3], 5%; in test [4] it was 11%.

Turning to `CC(=O)Nc1ccc(-c2cccc(-n3c4c(c5cc(C)ccc53)CN(C)CC4)c2)cn1` [Compound 45, N-(5-(3-(2,8-dimethyl-3,4-dihydro-1H-pyrido[4,3-b]indol-5(2H)-yl)phenyl)pyridin-2-yl)acetamide], the inhibition at 0.1 µM was found to be 12% in test [1], 6% in test [2], 1% in test [3] and 1% in test [4].
